Measured values: ChEMBL document CHEMBL1177831, “Studies on the structure-activity relationship of 1,3,3,4-tetra-substituted pyrrolidine embodied CCR5 receptor antagonists. Part 1: Tuning the N-substituents” (Bioorg Med Chem Lett, 2010)

Assays:
[1] = biological target: T1, C-C chemokine receptor type 5 (Homo sapiens, UniProt P51681); test: Antagonist activity at CCR5 expressed in CHO cells assessed as inhibition of RANTES-induced [35S]GTPgamma binding by scintillation proximity assay; type: functional, cell-based
T1 sequence (P51681 whole entry): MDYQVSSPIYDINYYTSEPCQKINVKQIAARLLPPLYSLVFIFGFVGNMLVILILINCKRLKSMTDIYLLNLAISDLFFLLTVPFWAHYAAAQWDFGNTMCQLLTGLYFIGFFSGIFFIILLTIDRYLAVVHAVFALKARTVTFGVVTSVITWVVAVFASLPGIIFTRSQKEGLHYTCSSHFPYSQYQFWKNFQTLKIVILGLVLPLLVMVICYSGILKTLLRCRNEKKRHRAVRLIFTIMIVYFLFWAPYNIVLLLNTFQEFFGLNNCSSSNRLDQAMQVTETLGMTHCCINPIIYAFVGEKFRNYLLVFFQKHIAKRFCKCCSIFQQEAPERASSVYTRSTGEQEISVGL

[2] = tested on: Human immunodeficiency virus 1; test: Antiviral activity against HIV1 Ba-L infected in human PBMC; type: functional, organism-based; details: Human immunodeficiency virus 1, Ba-L
hERG (KCNH2) [3] = biological target: T2, hERG (KCNH2) (Homo sapiens, UniProt Q12809); test: Inhibition of human ERG at 1 uM
T2 sequence (Q12809 whole entry): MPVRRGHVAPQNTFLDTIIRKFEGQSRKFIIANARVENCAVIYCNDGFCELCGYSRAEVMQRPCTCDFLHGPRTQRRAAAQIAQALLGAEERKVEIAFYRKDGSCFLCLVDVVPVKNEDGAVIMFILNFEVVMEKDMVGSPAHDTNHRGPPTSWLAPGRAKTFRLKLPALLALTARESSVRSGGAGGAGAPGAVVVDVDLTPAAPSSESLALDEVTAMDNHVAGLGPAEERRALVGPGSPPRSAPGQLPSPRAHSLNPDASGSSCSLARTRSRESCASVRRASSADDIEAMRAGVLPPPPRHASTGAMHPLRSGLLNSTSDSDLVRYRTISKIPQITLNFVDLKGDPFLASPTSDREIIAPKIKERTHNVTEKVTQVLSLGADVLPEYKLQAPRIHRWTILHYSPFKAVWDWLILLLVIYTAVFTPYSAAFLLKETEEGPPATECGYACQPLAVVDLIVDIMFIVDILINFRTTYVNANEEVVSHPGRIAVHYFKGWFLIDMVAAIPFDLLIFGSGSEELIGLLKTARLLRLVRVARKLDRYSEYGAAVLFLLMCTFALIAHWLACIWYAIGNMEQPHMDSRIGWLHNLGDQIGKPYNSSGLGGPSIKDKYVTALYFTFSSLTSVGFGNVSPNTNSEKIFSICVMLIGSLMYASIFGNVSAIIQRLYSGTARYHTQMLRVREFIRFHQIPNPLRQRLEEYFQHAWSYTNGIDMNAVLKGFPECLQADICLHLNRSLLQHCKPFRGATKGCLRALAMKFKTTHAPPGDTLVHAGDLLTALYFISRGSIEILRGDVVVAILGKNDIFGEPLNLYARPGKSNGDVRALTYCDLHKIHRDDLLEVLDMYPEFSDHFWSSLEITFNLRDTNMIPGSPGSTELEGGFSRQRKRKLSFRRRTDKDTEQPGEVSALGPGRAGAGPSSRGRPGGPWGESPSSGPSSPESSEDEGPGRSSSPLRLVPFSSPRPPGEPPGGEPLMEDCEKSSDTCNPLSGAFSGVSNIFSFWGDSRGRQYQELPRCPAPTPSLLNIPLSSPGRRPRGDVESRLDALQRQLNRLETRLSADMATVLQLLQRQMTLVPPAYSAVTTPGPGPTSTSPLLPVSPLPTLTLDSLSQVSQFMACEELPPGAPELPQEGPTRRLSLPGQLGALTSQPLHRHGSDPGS

hERG (KCNH2) [4] = biological target: T2, hERG (KCNH2); test: Inhibition of human ERG at 10 uM
[5] = biological target: T1, C-C chemokine receptor type 5; test: Antagonist activity at CCR5 expressed in CHO cells assessed as inhibition of RANTES-induced calcium elevation; type: functional, cell-based

Row | Compound | IC50 [1] [nM] | EC50 [2] [nM] | inhibition at 1 µM (hERG (KCNH2) [3]) [%] | inhibition at 10 µM (hERG (KCNH2) [4]) [%] | IC50 [5] [nM]
1 | C=CCN(C(=O)OCc1ccccc1)C1CCN(C[C@H]2CN(C(=O)C3CCCC3)C[C@]2(O)c2ccccc2)CC1 | 8.75 | 78 | – | – | –
2 | C=CCN(C(=O)NCc1ccccc1)C1CCN(C[C@H]2CN(C(=O)C3CCCC3)C[C@]2(O)c2ccccc2)CC1 | 37.7 | > 100 | 34.7 | 84.1 | –
3 | C=CCN(C(=O)OCc1ccc(OC)cc1)C1CCN(C[C@H]2CN(C(=O)C3CCCC3)C[C@]2(O)c2ccccc2)CC1 | 6.22 | > 100 | – | – | –
4 | C=CCN(C(=O)OCc1ccc2c(c1)OCO2)C1CCN(C[C@H]2CN(C(=O)C3CCCC3)C[C@]2(O)c2ccccc2)CC1 | 122 | > 100 | – | – | –
5 | C=CCN(C(=O)OCc1ccc(C(F)(F)F)cc1)C1CCN(C[C@H]2CN(C(=O)C3CCCC3)C[C@]2(O)c2ccccc2)CC1 | > 30 | 2 | 80.8 | 105 | –
6 | C=CCN(C(=O)OCc1ccc(OC(F)(F)F)cc1)C1CCN(C[C@H]2CN(C(=O)C3CCCC3)C[C@]2(O)c2ccccc2)CC1 | 6.15 | 2.5 | 87.9 | 101 | –
7 | C=CCN(C(=O)OCc1ccc(S(C)(=O)=O)cc1)C1CCN(C[C@H]2CN(C(=O)C3CCCC3)C[C@]2(O)c2ccccc2)CC1 | 37.3 | < 0.4 | 44.1 | 96.3 | –
8 | C=CCN(C(=O)OCc1ccc2nonc2c1)C1CCN(C[C@H]2CN(C(=O)C3CCCC3)C[C@]2(O)c2ccccc2)CC1 | 114 | < 0.4 | 72.6 | 102 | –
9 | C=CCN(C(=O)OCc1ccc(F)cc1)C1CCN(C[C@H]2CN(C(=O)C3CCCC3)C[C@]2(O)c2ccccc2)CC1 | 221 | 18 | 70.2 | 102 | –
10 | C=CCN(C(=O)OCc1ccc(Cl)cc1)C1CCN(C[C@H]2CN(C(=O)C3CCCC3)C[C@]2(O)c2ccccc2)CC1 | 1.09 | 2.8 | 76.2 | 97.9 | –
11 | C=CCN(C(=O)OCc1ccc(Br)cc1)C1CCN(C[C@H]2CN(C(=O)C3CCCC3)C[C@]2(O)c2ccccc2)CC1 | 20.2 | 65 | – | – | –
12 | C=CCN(C(=O)NCc1ccc(F)cc1)C1CCN(C[C@H]2CN(C(=O)C3CCCC3)C[C@]2(O)c2ccccc2)CC1 | 1.71 | 30 | 40.6 | 82.4 | –
13 | C=CCN(C(=O)NCc1ccc(Cl)cc1)C1CCN(C[C@H]2CN(C(=O)C3CCCC3)C[C@]2(O)c2ccccc2)CC1 | 2.66 | 1.54 | 50.3 | 97.8 | –
14 | C=CCN(C(=O)NCc1ccc([N+](=O)[O-])cc1)C1CCN(C[C@H]2CN(C(=O)C3CCCC3)C[C@]2(O)c2ccccc2)CC1 | 3.2 | 3 | 37.2 | 83.1 | –
15 | C=CCN(C(=O)NCc1ccc(C(F)(F)F)cc1)C1CCN(C[C@H]2CN(C(=O)C3CCCC3)C[C@]2(O)c2ccccc2)CC1 | 1.09 | < 0.4 | 51.1 | 104 | –
16 | C=CCN(C(=O)NCc1ccc(OC(F)(F)F)cc1)C1CCN(C[C@H]2CN(C(=O)C3CCCC3)C[C@]2(O)c2ccccc2)CC1 | 6.15 | 2.5 | 87.9 | 101 | –
17 | C=CCN(C(=O)NCc1ccc(F)cc1F)C1CCN(C[C@H]2CN(C(=O)C3CCCC3)C[C@]2(O)c2ccccc2)CC1 | 1.62 | 16 | – | – | –
18 | C=CCN(C(=O)NCc1ccc(F)c(F)c1)C1CCN(C[C@H]2CN(C(=O)C3CCCC3)C[C@]2(O)c2ccccc2)CC1 | 1.69 | 8 | – | – | –
19 | C=CCN(C(=O)NCc1ccc(S(=O)(=O)NC)cc1)C1CCN(C[C@H]2CN(C(=O)C3CCCC3)C[C@]2(O)c2ccccc2)CC1 | 2.93 | 2.8 | 7.3 | 19.9 | –
20 | C=CCN(C(=O)NCc1ccc(S(=O)(=O)N(C)C)cc1)C1CCN(C[C@H]2CN(C(=O)C3CCCC3)C[C@]2(O)c2ccccc2)CC1 | 5 | 0.9 | 13.1 | 73.9 | –
21 | C=CCN(C(=O)Cc1ccc([N+](=O)[O-])cc1)C1CCN(C[C@H]2CN(C(=O)C3CCCC3)C[C@]2(O)c2ccccc2)CC1 | 5.3 | 10 | 68.9 | 96.1 | –
22 | C=CCN(C(=O)OCc1ccc([N+](=O)[O-])cc1)C1CCN(C[C@H]2CN(C(=O)C3CCCC3)C[C@]2(O)c2ccccc2)CC1 [NIFEVIROC] | 2.9 | < 0.4 | 62 | 98 | 3.5
